Results reported in US4705796A, “Use of 3-N-phenylacetylamino-2,6-piperidinedione for treatment of neuropsychiatric disorders” (priority 1986, dated 1987).

Experiments:
[1] = test system: reserpine-induced akinesia; assay: PEA reversal of reserpine-induced akinesia in rats; assay type: in vivo, rat
[2] = test system: PEA induced stereotype behavior; assay: PEA induced stereotype behavior in rats; assay type: in vivo, rat
[3] = molecular target: T1, human brain MAO B (Homo sapiens, UniProt P27338); assay: MAO B activity in human brain homogenate (14C-PEA substrate); assay type: biochemical
T1 construct: Human and rat caudate nuclei were homogenized in 0.32M sucrose; from tissue; host or cells: human caudate nucleus homogenate (1%)
T1 sequence (P27338 1-520): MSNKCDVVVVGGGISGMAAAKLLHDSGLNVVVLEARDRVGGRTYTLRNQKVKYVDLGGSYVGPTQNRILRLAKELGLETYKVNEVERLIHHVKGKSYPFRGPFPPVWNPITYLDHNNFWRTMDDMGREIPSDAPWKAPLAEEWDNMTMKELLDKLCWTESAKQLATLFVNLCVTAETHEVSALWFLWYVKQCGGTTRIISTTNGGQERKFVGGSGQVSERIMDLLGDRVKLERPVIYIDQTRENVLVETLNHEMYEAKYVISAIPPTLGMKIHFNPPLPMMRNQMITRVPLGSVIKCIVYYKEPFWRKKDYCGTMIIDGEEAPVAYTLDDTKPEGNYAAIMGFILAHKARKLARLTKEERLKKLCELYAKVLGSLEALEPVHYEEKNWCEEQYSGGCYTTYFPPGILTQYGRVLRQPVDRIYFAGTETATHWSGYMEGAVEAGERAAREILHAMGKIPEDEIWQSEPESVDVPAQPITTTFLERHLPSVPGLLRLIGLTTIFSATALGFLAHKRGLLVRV

[4] = test system: PEA induced rotations in unilateral nigral lesioned rats; assay: Rotational behavior in unilateral substantia nigra 6-hydroxydopamine lesioned rats; assay type: in vivo, rat
[5] = test system: apomorphine and amphetamine induced locomotor changes; assay: Reversal of apomorphine and amphetamine induced locomotor changes in rats; assay type: in vivo, rat
Description: Thereafter, an analysis of a PAPD was undertaken in vitro and in vivo beginning with antipsychotic (neuroleptic) and antidepressant activity. […] The two distinct forms of the enzyme have been designated as type A (serotonin metabolizing and clorgyline sensitive) and type […] metabolizing and clorgyline insensitive). Based on the stereochemical model, it was predicted that PAPD's effect on MAO type B would be greater than its effect on MAO type A. In vitro data has substantiated this prediction.

[6] = molecular target: T2, human platelet MAO B (Homo sapiens, UniProt P27338); assay: Inhibition of platelet MAO B activity in vitro (human platelets); assay type: biochemical
T2 construct: The platelet pellet was resuspended in 5.0 ml of 0.1 M phosphate buffer with pH 7.4 by sonication; from tissue; host or cells: human blood platelets from normal volunteers, sonicated
T2 sequence (P27338 1-520): T1 sequence (P27338 1-520)

[7] = molecular target: T3, human brain MAO A (Homo sapiens, UniProt P21397); assay: MAO A activity in human brain homogenate (14C-5HT substrate); assay type: biochemical; conditions: substrate 14C-5HT; SD 15.1
T3 construct: Human and rat caudate nuclei were homogenized in 0.32M sucrose; from tissue; host or cells: human caudate nucleus homogenate (1%)
T3 sequence (P21397 1-527): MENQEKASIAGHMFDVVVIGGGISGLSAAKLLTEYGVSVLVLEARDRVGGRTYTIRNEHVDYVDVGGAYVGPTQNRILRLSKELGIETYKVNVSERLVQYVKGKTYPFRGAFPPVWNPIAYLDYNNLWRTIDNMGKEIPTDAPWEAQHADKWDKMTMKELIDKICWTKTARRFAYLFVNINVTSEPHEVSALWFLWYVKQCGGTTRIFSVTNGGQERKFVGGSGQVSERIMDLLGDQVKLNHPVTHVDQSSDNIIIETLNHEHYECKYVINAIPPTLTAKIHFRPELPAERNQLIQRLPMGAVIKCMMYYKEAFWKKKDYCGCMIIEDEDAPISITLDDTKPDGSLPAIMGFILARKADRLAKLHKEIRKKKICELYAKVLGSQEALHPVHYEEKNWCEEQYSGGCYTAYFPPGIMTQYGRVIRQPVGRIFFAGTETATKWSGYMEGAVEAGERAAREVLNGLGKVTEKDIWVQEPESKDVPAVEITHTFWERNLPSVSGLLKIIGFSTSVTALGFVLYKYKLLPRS

[8] = test system: rat caudate nucleus (H^3-spiroperidol); assay: Displacement of H^3-spiroperidol from rat caudate nucleus; assay type: binding; conditions: in vitro
[9] = molecular target: T4, rat brain MAO A (Rattus norvegicus, UniProt P21396); assay: MAO A activity in rat brain homogenate (14C-5HT substrate); assay type: biochemical; conditions: substrate 14C-5HT; SD ±6.0
T4 construct: Human and rat caudate nuclei were homogenized in 0.32M sucrose; from tissue; host or cells: rat caudate nucleus homogenate (1%)
T4 sequence (P21396 1-526): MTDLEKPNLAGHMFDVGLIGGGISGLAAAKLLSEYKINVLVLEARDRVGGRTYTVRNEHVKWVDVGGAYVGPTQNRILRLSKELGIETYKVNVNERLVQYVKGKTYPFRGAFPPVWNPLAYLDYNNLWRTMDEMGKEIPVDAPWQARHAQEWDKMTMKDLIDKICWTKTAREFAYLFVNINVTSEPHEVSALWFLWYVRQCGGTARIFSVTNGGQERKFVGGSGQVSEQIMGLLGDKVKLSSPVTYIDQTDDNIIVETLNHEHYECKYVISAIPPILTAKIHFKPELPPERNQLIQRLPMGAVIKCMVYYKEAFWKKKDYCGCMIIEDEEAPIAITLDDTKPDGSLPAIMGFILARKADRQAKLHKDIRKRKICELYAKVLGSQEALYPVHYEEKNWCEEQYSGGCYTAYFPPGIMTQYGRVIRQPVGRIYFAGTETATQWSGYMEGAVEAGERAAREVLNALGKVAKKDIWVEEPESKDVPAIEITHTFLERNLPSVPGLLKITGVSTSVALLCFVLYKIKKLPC

[10] = test system: cancer patients; conditions: cited from earlier work
[11] = molecular target: T5, rat brain MAO B (Rattus norvegicus, UniProt P19643); assay: MAO B activity in rat brain homogenate (14C-PEA substrate); assay type: biochemical
T5 construct: Human and rat caudate nuclei were homogenized in 0.32M sucrose; from tissue; host or cells: rat caudate nucleus homogenate (1%)
T5 sequence (P19643 1-520): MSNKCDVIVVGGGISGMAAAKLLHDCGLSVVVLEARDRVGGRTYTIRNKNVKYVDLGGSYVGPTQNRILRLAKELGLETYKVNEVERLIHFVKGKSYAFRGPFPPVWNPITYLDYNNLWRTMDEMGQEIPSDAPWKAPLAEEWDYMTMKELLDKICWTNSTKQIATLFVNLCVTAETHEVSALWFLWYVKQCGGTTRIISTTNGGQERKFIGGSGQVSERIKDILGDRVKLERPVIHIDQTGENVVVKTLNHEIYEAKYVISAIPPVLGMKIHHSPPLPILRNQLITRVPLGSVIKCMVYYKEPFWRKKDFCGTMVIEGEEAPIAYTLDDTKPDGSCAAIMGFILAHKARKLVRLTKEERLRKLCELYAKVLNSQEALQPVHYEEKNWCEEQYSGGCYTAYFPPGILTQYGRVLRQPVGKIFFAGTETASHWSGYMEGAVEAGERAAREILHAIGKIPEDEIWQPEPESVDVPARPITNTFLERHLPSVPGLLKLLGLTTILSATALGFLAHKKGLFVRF

[12] = clorgyline 5 mg/kg, 1 h prior to PEA
[13] = pargyline 50 mg/kg, prior to PEA
[14] = deprenyl 10 mg/kg, 1 h prior to PEA
[15] = PAPD (200 mg/kg by context), 1 h prior to PEA

For `C#CCN(C)CCCOc1ccc(Cl)cc1Cl` [clorgyline, reference compound], the “activity compared with PEA control animals” value [1, 12] was “not as active as PEA control animals”, the duration of behavior [1, 12] was 45 min and the “latency to reversal of akinesia” value [1, 12] was “less than five minutes”. For the same molecule, the serotonin type behavior [1, 12] was “splayed hind legs, myoclonic jerks and headweaving”, the forepaw padding syndrome ([2]; clorgyline 5 mg/kg) was “did not produce this syndrome” and the other stereotype behavior ([2]; clorgyline 5 mg/kg) was “stereotyped headbobbing”. The “animals with forepaw padding, sniffing, headweaving and retropulsion” value ([2]; clorgyline 10 mg/kg, 1 h prior to PEA) was 100% and the “duration of stereotype behavior” value ([2]; clorgyline, both doses (5 and 10 mg/kg)) was 30 min.
For `C#CCN(C)Cc1ccccc1` [pargyline], the “duration of activity with increased locomotion” value [1, 13] was 45 min and the “latency to reversal of akinesia” value [1, 13] was “less than five minutes”.
In the case of `NNCCc1ccccc1` [phenelzine, reference compound], the “potency relative to PAPD” value [3] is reported as “two orders of magnitude more potent than PAPD”.
For `NCCc1ccccc1` [PEA, phenylethylamine], the “duration of activity / reversal of akinesia” value ([1]; PEA 50 mg/kg i.p. alone) was 30 min, the “latency to reversal of akinesia” value ([1]; PEA 50 mg/kg i.p. alone, reserpine 10 mg/kg i.p.) was “less than five minutes” and the stereotype behavior ([2]; PEA 50 mg/kg alone) was “no stereotype behavior was observed”. For the same molecule, the duration of rotations ([4]; PEA 50 mg/kg alone) was 30 min and the ipsilateral turning ([4]; rat, in vivo) was “induced ipsilateral turning”.
In the case of `C#CCN(C)C(C)Cc1ccccc1` (centres unmarked) [deprenyl, reference compound], the “animals with forepaw padding with continuous sniffing and headweaving” value ([2]; deprenyl 5 mg/kg, 1 h prior to PEA) is reported as 50%, the “animals with forepaw padding with continuous sniffing and headweaving” value [2, 14] is reported as 100% and the “duration of stereotype behavior” value ([2]; deprenyl, 1 h prior to PEA) is reported as 60 min. The other stereotype behavior ([2]; deprenyl, 1 h prior to PEA) was “no other stereotype behavior observed”, the “duration of PEA rotations” value [4, 14] was “increased the duration of PEA rotations” and the “number of ipsilateral turns induced by PEA” value ([4]; rat, in vivo) was “doubled the number of ipsilateral turns”.
With `O=C1CCC(NC(=O)Cc2ccccc2)C(=O)N1` (centres unmarked) [PAPD, 3-N-phenylacetylamino-2,6-piperidinedione] the “effect on duration of PEA's reversal of akinesia” value ([1]; PAPD 200 mg/kg, 1 h prior to PEA) was “potentiated the duration of PEA's reversal of akinesia”, the “effect on reversal induced by PEA” value ([1]; PAPD 50 and 100 mg/kg, 1 h prior to PEA) was “antagonized the reversal induced by PEA” and the “duration of activity with increased locomotion” value [1, 15] was 50 min. The “latency to reversal of akinesia” value [1, 15] was “less than five minutes”, the serotonin behaviors ([1]; PAPD (200 mg/kg by context), interspersed with locomotor activity) was “headweaving and tremors” and the “reversal of apomorphine and amphetamine induced locomotor changes” value [5] was “inability to reverse apomorphine and amphetamine induced locomotor changes in rats”. For the same molecule, the “maximal inhibition of platelet MAO B” value ([6]; above 1.0 mM) was 100%, the “inhibition of platelet MAO, relative potency” value ([6]; compared with PAPD / pargyline) was “less potent than pargyline” and the IC50 ([6]; platelets from 6 subjects, duplicate assays, SD 34.5×10^-6) was 63.8 µM. For the same molecule, the “inhibition with increasing concentration” value ([6]; range of 0.1 to 1.0 mM) was “linear inhibition”, the “platelet MAO inhibition” value ([6]; standard platelet analysis) was “significant degree of MAO inhibition” and the IC50 [7] was 139 µM. For the same molecule, the “duration of stereotype behavior” value ([2]; 4 and 24 hours after PAPD (both groups)) was 30 min, the “animals displaying forepaw padding/sniffing/headweaving” value ([2]; 4 hours after PAPD) was 50% and the “animals displaying forepaw padding/sniffing/headweaving” value ([2]; 24 hours after PAPD) was 66%. For the same molecule, the “effect on PEA behavior” value ([2]; PAPD 50 and 100 mg/kg pretreatment) was “no effects on PEA behavior were noticed”, the “animals with forepaw padding with continuous sniffing as well as headweaving” value ([2]; PAPD 200 and 400 mg/kg) was 100% and the “duration of stereotype behavior” value ([2]; PAPD 200 and 400 mg/kg) was 45 to 50 min. The other stereotype behavior ([2]; PAPD 200 and 400 mg/kg) was “headbobbing”, the “animals with forepaw padding with continuous sniffing as well as headweaving” value ([2]; PAPD one and two hours prior to PEA) was 100% and the “duration of stereotype behavior” value ([2]; PAPD one hour prior to PEA) was 45 min. The “duration of stereotype behavior” value ([2]; PAPD two hours prior to PEA) was 55 min, the “displacement of H^3-spiroperidol” value [8] was “inability to displace H^3 -spiroperidol from rat caudate nucleus” and the IC50 [9] was 93.3 µM. For the same molecule, the toxic effects ([10]; human, in vivo) was “lack of toxic effects”, the mood ([10]; some cancer patients) was “elevation of mood” and the need for analgesia ([10]; some cancer patients) was “diminished need for analgesia”. The “number and duration of PEA rotations” value ([4]; PAPD 200 mg/kg, 1 h before PEA) was “increased the number and duration of PEA rotations”, the “number or duration of PEA rotations” value ([4]; PAPD 50, 100 and 150 mg/kg, 1 h before PEA) was “did not affect the number or duration of PEA rotations” and the “inhibition of MAO type B versus MAO type A” value ([11]; in vitro and in vivo analyses, summary) was “inhibition of MAO type B greater than that for MAO type A”. The “selectivity: concentrations inhibiting MAO B compared with MAO A” value ([11]; rat brain) was 10 times less, the IC50 ([11]; substrate 14C-PEA, SD ±2.1) was 8 µM and the “selectivity for type B MAO” value ([3]; human brain tissue) was “five times more selective”. For the same molecule, the IC50 ([3]; substrate 14C-PEA, PAPD SD 3.7) was 19.9 µM.
